Test results from patent publication US7569554B2, “Synergistic treatment of cancer using immunomers in conjunction with therapeutic agents” (Idera Pharmaceuticals, Inc., priority 2003, dated 2009).

Assays:
[1] = system: vertebrate cells, preferably BALB/c mouse spleen cells or human PBMC; test: Immunostimulatory activity, IL-12/IL-6 secretion (Tables 9-12, cell culture not given); assay type: cell-based
Protocol: (§1) The secretion of IL-12 and IL-6 in vertebrate cells, preferably BALB/c mouse spleen cells or human PBMC, was measured by sandwich ELISA. The required reagents including cytokine antibodies and cytokine standards were purchased form PharMingen, San Diego, Calif. ELISA plates (Costar) were incubated with appropriate antibodies at 5 μg/mL in PBSN buffer (PBS/0.05% sodium azide, pH 9.6) overnight at 4° C. and then blocked with PBS/i % BSA at 37° C. for 30 minutes. Cell culture supernatants and cytokine standards were appropriately diluted with PBS/10% FBS, added to the plates in triplicate, and incubated at 25° C. for 2 hours. Plates were overlaid with 1 μg/mL appropriate biotinylated antibody and incubated at 25° C. for 1.5 hours. The plates were then washed extensively with PBS-T Buffer (PBS/0.05% Tween 20) and further incubated at 25° C. for 1.5 hours after adding streptavidin conjugated peroxidase (Sigma, St. Louis, Mo.). The plates were developed with Sure Blue™ (Kirkegaard and Perry) chromogenic reagent and the reaction was terminated by adding Stop Solution (Kirkegaard and Perry). The color change was measured on a Ceres 900 HDI Spectrophotometer (Bio-Tek Instruments).
(§2) In all instances, the levels of IL-12 and IL-6 in the cell culture supernatants were calculated from the standard curve constructed under the same experimental conditions for IL-112 and IL-6, respectively. The levels of IL-10, IFN-gamma and TNF-α in the cell culture supernatants were calculated from the standard curve constructed under the same experimental conditions for IL-10, IFN-gamma and TNF-α, respectively.

[2] = system: BALB/c mouse spleen cells; test: Cytokine secretion in BALB/c mouse spleen cell cultures (sandwich ELISA); assay type: cell-based; settings: for Induction of IL-12: FIG. 7A; for Induction of IL-12 / Induction of IL-6: compared with Oligo 1; for Induction of IL-6: FIG. 7B
Protocol: as §1, §2

BALB/c mice = test: In vivo serum cytokine induction; set-up: species or system mouse; settings: 4 hrs
Protocol: To assess serum cytokine levels, BALB/c mice (n=5) were injected intraperitoneally (i.p), subcutaneously (s.c) or intramuscularly (i.m) with IMO compounds at 10 mg/kg (single dose). Sera was collected by retro-orbital bleeding at 4 hrs of IMO administration and determined IL-112 and IL-6 by sandwich ELISA. Cytokine antibodies and standards were purchased from PharMingen (San Diego, Calif.).
To evaluate the immunopharmacological effects in vivo, IMO compounds, CpG immunomers, and non-CpG oligos were administered to BALB/c mice i.p, s.c or i.m at a dose of 10 mg/kg and their serum was evaluated for IL-12 and IL-6 after 4 hrs.

human PBMC = test: Cytokine secretion in human PBMC cultures (sandwich ELISA); assay type: cell-based
Protocol: as §1
Human peripheral blood mononuclear cells (PBMCs) were isolated from peripheral blood of healthy volunteers by Ficoll-Paque density gradient centrifugation (Histopaque-1077, Sigma, St. Louis, Mo.). Briefly, heparinized blood was layered onto the Histopaque-1077 (equal volume) in a conical centrifuge and centrifuged at 400×g for 30 minutes at room temperature. The buffy coat, containing the mononuclear cells, was removed carefully and washed twice with isotonic phosphate buffered saline (PBS) by centrifugation at 250×g for 10 minutes. The resulting cell pellet was then resuspended in RPMI 1640 medium containing L-glutamine (MediaTech, Inc., Hemdon, Va.) and supplemented with 10% heat inactivated FCS and penicillin-streptomycin (100 U/ml). Cells were cultured in 24 well plates for different time periods at 1×10^6 cells/ml/well in the presence or absence of oligonucleotides. At the end of the incubation period, supernatants were harvested and stored frozen at −70° C. until assayed for various cytokines including IL-6 (BD Pharmingen, San Diego, Calif.), IL-10 (BD Pharmingen), IL-12 (BioSource International, Camarillo, Calif.), IFN-α (BioSource International) and -γ(BD Pharmingen) and TNF-α(BD Pharmingen) by sandwich ELISA.
as §2

[3] = Intraperitoneal (i.p), 10 mg/kg

## Immunomer 83: SEQ ID NO: 37, 10mer (DNA CTGACGTTCT; listed as DNA, chemistry not fully specified)
[1]; 0.3 μg/mL, Table 12
  IL-12: 1241 pg/mL
[1]; 1 μg/mL, Table 12
  IL-6: 1964 pg/mL

## 5′-CTCACTTTCGTTCTCTGT-3′ [Oligo 51]
[1]; @ 3 μg/mL, Table 9
  IL-6: 348 pg/mL
  IL-12: 404 pg/mL

## 3′-TTCCAGCTCGCAAGAG-5′-5′-GAGAACGCTCGACCTT-3′ [Immunomer 3]
[2]
  Induction of IL-12: equal or weaker ability to produce immune stimulation compared with oligo 1
  Induction of IL-6: equal or weaker ability to induce immune stimulation compared with Oligo 1

## Immunomer 70: SEQ ID NO: 24, 11mer (DNA TCTGACNTTCT; listed as DNA, chemistry not fully specified)
[1]; 3 μg/mL, Table 11
  IL-6: 1741 pg/mL
  IL-12: 1780 pg/mL

## Immunomer 58: SEQ ID NO: 33, 11mer (DNA TCTTTCNTTCT; listed as DNA, chemistry not fully specified)
[1]; @ 3 μg/mL, Table 9
  IL-6: 283 pg/mL
  IL-12: 303 pg/mL

## Immunomer 62: SEQ ID NO: 35, 11mer (DNA TCTGTCNTTCT; listed as DNA, chemistry not fully specified)
[1]; 3 μg/mL, Table 10
  IL-6: 296 pg/mL
  IL-12: 787 pg/mL

## Immunomer 61: SEQ ID NO: 34, 11mer (DNA TCTGTNGTTCT; listed as DNA, chemistry not fully specified)
[1]; 3 μg/mL, Table 10
  IL-6: 470 pg/mL
  IL-12: 1127 pg/mL

## Immunomer 67: SEQ ID NO: 6, 14mer (DNA CTGANGTTCTCTGT; listed as DNA, chemistry not fully specified)
[1]; 3 μg/mL, Table 11
  IL-6: 152 pg/mL
  IL-12: 548 pg/mL

## 5′-CTATCTCACCTTCTCTGT-3′ (DNA, backbone not given here) [Non-CpG, reference compound]
BALB/c mice; 10 mg/kg i.p, s.c or i.m
  Serum IL-12 induction: insignificant
BALB/c mice; 10 mg/kg, all three routes of administration
  Serum IL-6 induction: insignificant
BALB/c mice; Intramuscular (i.m), 10 mg/kg
  IL-12 (serum): 1.6 ± 0.07 ng/mL
BALB/c mice; [3]
  IL-6 (serum): 0.7 ± 0.3 ng/mL
  IL-12 (serum): 0.86 ± 0.5 ng/mL
BALB/c mice; Subcutaneous (s.c), 10 mg/kg
  IL-12 (serum): 1.7 ± 0.04 ng/mL

## 5′-CTATCTGACGTTCTCTGT-3′ (DNA, all phosphorothioate, methylation of C not given here) [Oligonucleotide 4]
[2]; 0.3 μg/mL, Table 13
  IL-12: 225 pg/mL
[2]; 1 μg/mL, Table 13
  IL-6: 1462 pg/mL
[1]; 0.3 μg/mL, Table 12
  IL-12: 257 pg/mL
[1]; 1 μg/mL, Table 12
  IL-6: 635 pg/mL
[1]; 3 μg/mL, Table 11
  IL-6: 1892 pg/mL
  IL-12: 1176 pg/mL

## Immunomer 69: SEQ ID NO: 36, 11mer (DNA TCTGANGTTCT; listed as DNA, chemistry not fully specified)
[1]; 3 μg/mL, Table 11
  IL-6: 2724 pg/mL
  IL-12: 2050 pg/mL

## Immunomer 73: SEQ ID NO: 37, 10mer (DNA CTGACGTTCT; listed as DNA, chemistry not fully specified)
[1]; 0.3 μg/mL, Table 12
  IL-12: 697 pg/mL
[1]; 1 μg/mL, Table 12
  IL-6: 1454 pg/mL

## Immunomer 76: SEQ ID NO: 37, 10mer (DNA CTGACGTTCT; DNA, backbone and methylation of C not given here; immunomer: two 10mer chains joined by non-nucleotidic linker, linker varies, further chemistry not fully specified)
[1]; 0.3 μg/mL, Table 12
  IL-12: 563 pg/mL
[1]; 1 μg/mL, Table 12
  IL-6: 705 pg/mL

## Immunomer 78: SEQ ID NO: 37, 10mer (DNA CTGACGTTCT; DNA, backbone and methylation of C not given here; immunomer: two 10mer chains joined by non-nucleotidic linker, linker varies, further chemistry not fully specified)
[1]; 0.3 μg/mL, Table 12
  IL-12: 1750 pg/mL
[1]; 1 μg/mL, Table 12
  IL-6: 2258 pg/mL

## Immunomer 57: SEQ ID NO: 32, 11mer (DNA TCTTTNGTTCT; listed as DNA, chemistry not fully specified)
[1]; @ 3 μg/mL, Table 9
  IL-6: 365 pg/mL
  IL-12: 591 pg/mL

## 5-GAGAACGCTCGACCTT-3′-3′-TTCCAGCTCGCAAGAG-5′ [Immunomer 2]
[2]
  Induction of IL-12: stronger inducer of IL-12 than monomeric Oligo 1
  Induction of IL-6: stronger inducer of IL-6 than monomeric Oligo 1
[2]; FIGS. 7A-C
  Elevation of IL-12, IL-6 and IL-10: elevates IL-12 and IL-6, but not IL-10 at lower concentrations than Oligonucleotides 1 or 3

## 5′-CTATCTGTCGTTCTCTGT-3′ (phosphorothioate, further chemistry not given here) [Oligo 25, 18mer (PS)]
Human PBMC; donor 1 (D1)
  IFN-γ: 125 pg/mL
  IL-6: 3077 pg/mL
  IL-10: 37 pg/mL
  IL-12: 184 pg/mL
  TNF-α: 537 pg/mL
Human PBMC; donor 2 (D2)
  IFN-γ: 84 pg/mL
  IL-6: 5369 pg/mL
  IL-10: 88 pg/mL
  IL-12: 332 pg/mL
[1]; 3 μg/mL, Table 10
  IL-6: 339 pg/mL
  IL-12: 379 pg/mL

## Immunomer 74: SEQ ID NO: 37, 10mer (DNA CTGACGTTCT; DNA, backbone and methylation of C not given here; immunomer: two 10mer chains joined by non-nucleotidic linker, linker varies, further chemistry not fully specified)
[1]; 0.3 μg/mL, Table 12
  IL-12: 1162 pg/mL
[1]; 1 μg/mL, Table 12
  IL-6: 669 pg/mL

## Immunomer 81: SEQ ID NO: 37, 10mer (DNA CTGACGTTCT; listed as DNA, chemistry not fully specified)
[1]; 0.3 μg/mL, Table 12
  IL-12: 3625 pg/mL
[1]; 1 μg/mL, Table 12
  IL-6: 2642 pg/mL

## Immunomer 79: SEQ ID NO: 37, 10mer (DNA CTGACGTTCT; listed as DNA, chemistry not fully specified)
[1]; 0.3 μg/mL, Table 12
  IL-12: 2255 pg/mL
[1]; 1 μg/mL, Table 12
  IL-6: 2034 pg/mL

## Immunomer 82: SEQ ID NO: 37, 10mer (DNA CTGACGTTCT; listed as DNA, chemistry not fully specified)
[1]; 0.3 μg/mL, Table 12
  IL-12: 4248 pg/mL
[1]; 1 μg/mL, Table 12
  IL-6: 2988 pg/mL

## Immunomer 80: SEQ ID NO: 37, 10mer (DNA CTGACGTTCT; listed as DNA, chemistry not fully specified)
[1]; 0.3 μg/mL, Table 12
  IL-12: 1493 pg/mL
[1]; 1 μg/mL, Table 12
  IL-6: 1197 pg/mL

## Immunomer 77: SEQ ID NO: 37, 10mer (DNA CTGACGTTCT; DNA, backbone and methylation of C not given here; immunomer: two 10mer chains joined by non-nucleotidic linker, linker varies, further chemistry not fully specified)
[1]; 0.3 μg/mL, Table 12
  IL-12: 264 pg/mL
[1]; 1 μg/mL, Table 12
  IL-6: 543 pg/mL

## Immunomer 75: SEQ ID NO: 37, 10mer (DNA CTGACGTTCT; DNA, backbone and methylation of C not given here; immunomer: two 10mer chains joined by non-nucleotidic linker, linker varies, further chemistry not fully specified)
[1]; 0.3 μg/mL, Table 12
  IL-12: 1074 pg/mL
[1]; 1 μg/mL, Table 12
  IL-6: 1375 pg/mL

## Immunomer 66: SEQ ID NO: 5, 18mer (DNA CTATCTGACNTTCTCTGT; listed as DNA, chemistry not fully specified)
[1]; 3 μg/mL, Table 11
  IL-6: 464 pg/mL
  IL-12: 627 pg/mL

## Immunomer 68: SEQ ID NO: 7, 14mer (DNA CTGACNTTCTCTGT; listed as DNA, chemistry not fully specified)
[1]; 3 μg/mL, Table 11
  IL-6: 1020 pg/mL
  IL-12: 1052 pg/mL

## Immunomer 65: SEQ ID NO: 4, 18mer (DNA CTATCTGANGTTCTCTGT; listed as DNA, chemistry not fully specified)
[1]; 3 μg/mL, Table 11
  IL-6: 192 pg/mL
  IL-12: 443 pg/mL
